Earlier results on one compound are cited in patent US20160243064A1, “NOVEL ORAL PHARMACEUTICAL COMPOSITIONS OF TREPROSTINIL” (Gavis Pharmaceuticals, priority 2015, published 2016).

The conditions of this data set: free acid, as taught by the cited US patents.

In the case of `CCCCC[C@H](O)CC[C@@H]1[C@H]2Cc3cccc(OCC(=O)O)c3C[C@H]2C[C@H]1O` [treprostinil], the oral absolute bioavailability result is “less than 10%”.
